The values that follow come from ChEMBL document CHEMBL1149920, “Synthesis and biological evaluation of an alkenyldiarylmethane (ADAM) which acts as a novel non-nucleoside HIV-1 reverse transcriptase inhibitor” (Bioorg Med Chem Lett, 1995).

The test system of one test is CEM-SS. The test is described as follows: Concentration that provides 50% protection in the CEM-SS cells infected with HIV-2 strain; IA means inactive. In kind it is functional, cell-based. Particulars: Homo sapiens.
Test [1] deals with Human immunodeficiency virus type 1 reverse transcriptase (Human immunodeficiency virus 1, UniProt Q72547). The test is described as follows: Inhibitory activity against HIV-1 reverse transcriptase.
For test [2], the system named is MT4. The test is described as follows: Concentration that provides 50% protection in the MT-4 cells infected with AZT-resistant HIV-1 6R strain. In kind it is functional, cell-based. Conditions: Homo sapiens.
Test [3] deals with MT4. The test is described as follows: Concentration that provides 50% protection in the MT-4 cells infected with AZT-resistant HIV-1 6S strain. In kind it is functional, cell-based. Particulars: Homo sapiens.
For test [4], the system named is MT4. The test is described as follows: Concentration that provides 50% protection in the MT-4 cells infected with HIV-1 IIIBstrain. Conditions: Homo sapiens. In kind it is functional, cell-based.
The subject of test [5] is MT4. The test is described as follows: Concentration that provides 50% protection in the MT-4 cells infected with nevirapine-resistant HIV-1 N119 strain. In kind it is functional, cell-based. Conditions: Homo sapiens.
The subject of test [6] is MO/Mphi. The test is described as follows: Concentration that provides 50% protection in the MO/Mphi cells infected with HIV-1 ADA strain. In kind it is functional, cell-based. Particulars: Homo sapiens.
Test [7] relates to MO/Mphi. The test is described as follows: Concentration that provides 50% protection in the MO/Mphi cells infected with HIV-1 Ba-L strain. The class given is functional, cell-based. Particulars: Homo sapiens.
The subject of test [8] is MO/Mphi. The test is described as follows: Concentration that results in 50% death of MO/Mphi cells infected with HIV-1 ADA strain; no toxicity was observed. In kind it is functional, cell-based. Particulars: Homo sapiens.
The subject of test [9] is MO/Mphi. The test is described as follows: Concentration that results in 50% death of MO/Mphi cells infected with HIV-1 Ba-L strain; no toxicity was observed. In kind it is functional, cell-based. Particulars: Homo sapiens.
Test [10] deals with MT4. The test is described as follows: Concentration that provides 50% protection in the MT-4 cells infected with pyridinone-resistant HIV-1 A17 strain. The class given is functional, cell-based. Conditions: Homo sapiens.
Test [11] relates to MT4. The test is described as follows: Concentration that provides 50% protection in the MT-4 cells infected with SIV strain. In kind it is functional, cell-based. Conditions: Homo sapiens.
Test [12] has as its system MT4. The test is described as follows: Concentration that results in 50% death of MT-4 cells infected with AZT resistant HIV-1 6R strain; no toxicity was observed. The class given is functional, cell-based. Conditions: Homo sapiens.
The subject of test [13] is MT4. The test is described as follows: Concentration that results in 50% death of MT-4 cells infected with HIV-1 6S strain; no toxicity was observed. The class given is functional, cell-based. Particulars: Homo sapiens.
The test system of test [14] is MT4. The test is described as follows: Concentration that results in 50% death of MT-4 cells infected with HIV-1 IIIB strain; no toxicity was observed. The class given is functional, cell-based. Conditions: Homo sapiens.
For test [15], the system named is MT4. The test is described as follows: Concentration that results in 50% death of MT-4 cells infected with Nevirapine resistant HIV-1 N119 strain; no toxicity was observed. In kind it is functional, cell-based. Particulars: Homo sapiens.
Test [16] relates to MT4. The test is described as follows: Concentration that results in 50% death of MT-4 cells infected with SIV strain; no toxicity was observed. The class given is functional, cell-based. Conditions: Homo sapiens.
In test [17] the test system is MT4. The test is described as follows: Concentration that results in 50% death of MT-4 cells infected with pyridinone-resistant HIV-1 A17 strain; no toxicity was observed. The class given is functional, cell-based. Conditions: Homo sapiens.
The subject of test [18] is PBL. The test is described as follows: Concentration that provides 50% protection in the PBL cells infected with HIV-1 BAKI strain. The class given is functional, cell-based. Particulars: Homo sapiens.
In test [19] the test system is PBL. The test is described as follows: Concentration that provides 50% protection in the PBL cells infected with HIV-1 VIHU strain. The class given is functional, cell-based. Conditions: Homo sapiens.
The subject of test [20] is PBL. The test is described as follows: Concentration that provides 50% protection in the PBL cells infected with HIV-1 WEJO strain. The class given is functional, cell-based. Conditions: Homo sapiens.
Test [21] relates to PBL. The test is described as follows: Concentration that results in 50% death of PBL cells infected with HIV-1 BAKI strain; no toxicity was observed. The class given is functional, cell-based. Conditions: Homo sapiens.
The test system of test [22] is PBL. The test is described as follows: Concentration that results in 50% death of PBL cells infected with HIV-1 VIHU strain; no toxicity was observed. In kind it is functional, cell-based. Conditions: Homo sapiens.
Test [23] has as its system PBL. The test is described as follows: Concentration that results in 50% death of PBL cells infected with HIV-1 WEJO strain; no toxicity was observed. The class given is functional, cell-based. Conditions: Homo sapiens.

Active and inactive are the calls of the source. No cut-off for these calls is given here. Bounds are passed on as bounds.

As to `CCCCCC=C(c1cc(Br)c(OC)c(C(=O)OC)c1)c1cc(Br)c(OC)c(C(=O)OC)c1`, the IA entry in the test on CEM-SS was “inactive”. For the same compound, the IC50 was 0.38 µM in [1]; above 200 µM with MO/Mphi [8]; above 200 µM in the test with MO/Mphi [9]; above 200 µM in the test on MT4 [12]; above 200 µM in the test with MT4 [13]; above 200 µM with MT4 [14]. Further, the IC50 with MT4 [15] is above 200 µM; with MT4 [16] it was above 200 µM; in the test on MT4 [17] it was above 200 µM; in the test with PBL [21] it was above 100 µM; with PBL [22], above 100 µM; in the test on PBL [23], above 100 µM. The EC50 in the test with MT4 [2] stood at 6 µM; in the test on MT4 [3], 0.56 µM; with MT4 [4] it was 16 µM; with MT4 [5] it was 151 µM; with MO/Mphi [6], 1.85 µM; with MO/Mphi [7] it was 5.5 µM. Also, the EC50 stood at 14 µM in the test with MT4 [10]; 136 µM in the test on MT4 [11]; 15.2 µM in the test on PBL [18]; 24.9 µM in the test with PBL [19]; 10.2 µM with PBL [20].
